According to PubChem BioAssay (NCI):
“And” between values parts separate entries of the source, which are not always exact repeats. Identical values can stand only once.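 Interpolation was linear, between the two tested concentrations surrounding the appropriate level; five concentrations were tested over 48 hours in 96-well plates. Here, GI50 denotes the concentration required for 50% inhibition of growth. Definition used: TGI = concentration required for complete inhibition of growth.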

Legend:
Assay in all cases: DTP human tumour cell line panel, 48 h
RPMI-8226 leukemia = tested on: RPMI-8226 leukemia
SNB-19 CNS = tested on: SNB-19 CNS
HOP-62 NSCLC = tested on: HOP-62 NSCLC
HOP-92 NSCLC = tested on: HOP-92 NSCLC
KM12 colon = tested on: KM12 colon
NCI-H23 lung = tested on: NCI-H23 lung
U251 CNS = tested on: U251 CNS
IGROV1 ovarian = tested on: IGROV1 ovarian
OVCAR-3 ovarian = tested on: OVCAR-3 ovarian
UO-31 renal = tested on: UO-31 renal
MOLT-4 leukemia = tested on: MOLT-4 leukemia
SK-MEL-28 melanoma = tested on: SK-MEL-28 melanoma
COLO 205 colon = tested on: COLO 205 colon
HCT-15 colon = tested on: HCT-15 colon

Row | SMILES | TGI (RPMI-8226 leukemia) | TGI (SNB-19 CNS) | TGI (HOP-62 NSCLC) | TGI (HOP-92 NSCLC) | TGI (KM12 colon) | TGI (NCI-H23 lung) | TGI (U251 CNS) | TGI (IGROV1 ovarian) | TGI (OVCAR-3 ovarian) | TGI (UO-31 renal) | TGI (MOLT-4 leukemia) | TGI (SK-MEL-28 melanoma) | TGI (COLO 205 colon) | TGI (HCT-15 colon) | GI50 (SNB-19 CNS) | GI50 (NCI-H23 lung) | GI50 (IGROV1 ovarian) | GI50 (UO-31 renal) | GI50 (HCT-15 colon) | GI50 (RPMI-8226 leukemia)
1 | C/C(=C/C(=O)Nc1ccccc1)Nc1onc(C)c1C | > 100 µM | > 100 µM | > 100 µM | > 100 µM | > 100 µM | > 100 µM | > 100 µM | > 100 µM | > 100 µM | > 100 µM | > 100 µM | > 100 µM | > 100 µM | > 100 µM | – | – | – | – | – | –
2 | O=C1OC(c2ccccc2)=NC1c1ccccc1 (stereo not given) | > 100 µM | > 100 µM | > 100 µM | > 100 µM | > 100 µM | > 100 µM | > 100 µM | > 100 µM | > 100 µM | > 100 µM | > 100 µM | > 100 µM | > 100 µM | > 100 µM | – | – | – | – | – | –
3 | COc1cc(OC2OC(CO)C(O)C(O)C2O)c2c(O)c3c(=O)cc(C)oc3cc2c1 (stereo not given) | > 100 µM | > 100 µM | > 100 µM | – | > 100 µM | > 100 µM | > 100 µM | > 100 µM | > 100 µM | > 100 µM | > 100 µM | > 100 µM | > 100 µM | > 100 µM | – | – | – | – | – | –
4 | CCOC(=O)Cc1cc(OC)c(OC)cc1/C(Cl)=C(\CO)c1ccc(OC)c(OC)c1 | > 100 µM | > 100 µM | – | 98.1 µM | – | > 100 µM | > 100 µM | > 100 µM | > 100 µM | > 100 µM | > 100 µM | > 100 µM | > 100 µM | > 100 µM | – | – | – | – | – | –
5 | CCCCCC(=O)N[C@@H](c1ccco1)[C@@H](O)C(=O)O[C@H]1C[C@@]2(O)[C@@H](OC(=O)c3ccccc3)[C@@H]3[C@]4(OC(C)=O)CO[C@@H]4C[C@H](O)[C@@]3(C)C(=O)[C@H](OC(C)=O)C(=C1C)C2(C)C | 8.08 µM | > 25 µM | > 25 µM | > 25 µM | > 25 µM | > 25 µM | > 25 µM | – | 0.000716 µM | > 25 µM | – | – | 0.00015 µM | > 25 µM | 0.00055 µM | 0.000239 µM | 0.00129 µM | 0.187 µM | 0.0396 µM | –
6 | O=C1C(Cl)N(c2c(Cl)cccc2Cl)C1c1c[nH]c2ccccc12 (stereo not given) | > 100 µM | > 100 µM | > 100 µM | > 100 µM | > 100 µM | > 100 µM | > 100 µM | > 100 µM | > 100 µM | > 100 µM | > 100 µM | > 100 µM | > 100 µM | – | – | – | – | – | – | –
7 | O=C(Nc1ccc([N+](=O)[O-])cc1)Nn1cnnc1 | > 100 µM | > 100 µM | > 100 µM | > 100 µM | 72.6 µM | 48.8 µM | > 100 µM | > 100 µM | 72.8 µM | > 100 µM | > 100 µM | > 100 µM | > 100 µM | > 100 µM | – | – | – | – | – | –
8 | C[N+](C)(CCCCCC[N+](C)(C)CCCN1C(=O)c2cccc3cccc(c23)C1=O)CCCN1C(=O)c2cccc3cccc(c23)C1=O | > 100 µM | > 100 µM | – | > 100 µM | > 100 µM | > 100 µM | > 100 µM | > 100 µM | > 100 µM | > 100 µM | > 100 µM | > 100 µM | > 100 µM | > 100 µM | – | – | – | – | – | –
9 | COc1ccccc1/C=C(/C)[N+](=O)[O-] | – | 15.1 µM and 5.77 µM | > 100 µM | 5.72 µM | 10.2 µM and 3.46 µM | 5.81 µM | 4.19 µM and 3.43 µM | 5.18 µM and 3.72 µM | 3.15 µM and 2.68 µM | 3.36 µM and 3.39 µM | 0.598 µM and 1.5 µM | 5.64 µM and 4.97 µM | 10.3 µM | 7.43 µM and 5.11 µM | – | – | – | – | – | 0.282 µM and 0.608 µM
10 | O=NN1C(c2ccccc2)CNC(=O)CC1c1ccccc1 (stereo not given) | > 100 µM | > 93.2 µM | > 100 µM | > 100 µM | > 100 µM | 97.9 µM | > 100 µM | > 100 µM | > 92.7 µM | > 83.6 µM | > 93 µM | > 100 µM | 69.8 µM | > 100 µM | – | – | – | – | – | –
11 | CC(C)(O)/C1=C/C=C/CCCCCCCCCC1 | > 100 µM | > 100 µM | > 100 µM | > 100 µM | > 100 µM | > 100 µM | > 100 µM | > 100 µM | > 100 µM | > 100 µM | > 100 µM | > 100 µM | > 100 µM | > 100 µM | – | – | – | – | – | –
12 | O=[N+]([O-])C(=C/c1ccccc1)/C(=C\c1ccccc1)[N+](=O)[O-] | 48.4 µM | 33.4 µM | 40 µM | 39.8 µM | 29 µM | 31.1 µM | 29 µM | 33.4 µM | 45.3 µM | 31.3 µM | 19.5 µM | 31.2 µM | 40 µM | – | – | – | – | – | – | –
13 | CCNC(=O)C(C)C1CCC2(C)C=CC(=O)C(C)=C2C1O (stereo not given) | > 100 µM | > 100 µM | > 100 µM | > 100 µM | > 100 µM | > 100 µM | > 100 µM | > 100 µM | > 100 µM | > 100 µM | > 100 µM | > 100 µM | > 100 µM | > 100 µM | – | – | – | – | – | –
14 | OCC1O[C@H](O[C@@H]2CCCN3CC(O)C(O)[C@@H]23)C(O)C(O)C1O (stereo not given in full) | – | – | > 100 µM | > 100 µM | > 100 µM | > 100 µM | > 100 µM | > 100 µM | > 100 µM | > 100 µM | > 100 µM | > 100 µM | > 100 µM | > 100 µM | – | – | – | – | – | –
